Test results from PubChem BioAssay AID1259407 (Chemical Carcinogenesis Research Information System (CCRIS), 2018).
Active and inactive are the calls of the source. No rule for the calls is given here.

System: CCRIS mutagenicity, Ames/micronucleus/aberration tests
Assay: CCRIS mutagenicity studies
[1] = Test System: AMES SALMONELLA TYPHIMURIUM, Strain/Indicator: TA98, Metabolic Activation: NONE, Method: STANDARD PLATE
[2] = Test System: AMES SALMONELLA TYPHIMURIUM, Strain/Indicator: TA100, Metabolic Activation: NONE, Method: STANDARD PLATE
[3] = Test System: AMES SALMONELLA TYPHIMURIUM, Strain/Indicator: TA1535, Metabolic Activation: NONE, Method: STANDARD PLATE
[4] = Test System: AMES SALMONELLA TYPHIMURIUM, Strain/Indicator: TA1537, Metabolic Activation: NONE, Method: STANDARD PLATE
[5] = Test System: AMES SALMONELLA TYPHIMURIUM, Strain/Indicator: TA1538, Metabolic Activation: NONE, Method: STANDARD PLATE

Question: What does the source list for Cc1cccc(NC(=O)c2csc([N+](=O)[O-])c2)c1?
Answer: mutagenic call [1]: active; positive; mutagenic call [2]: active; positive

Question: COc1cc(N)c(C)cc1N was tested. Which mutagenic call [1] did it give?
Answer: The mutagenic call was “inactive; negative”.

Question: And the mutagenic call (Test System: AMES SALMONELLA TYPHIMURIUM, Strain/Indicator: TA98, Metabolic Activation: RAT, LIVER, S-9, AROCLOR 1254, Method: STANDARD PLATE)?
Answer: Its mutagenic call is “inactive; negative”.

Question: What about the mutagenic call [2] of the same compound?
Answer: The mutagenic call was “inactive; negative”.

Question: What about the mutagenic call (Test System: AMES SALMONELLA TYPHIMURIUM, Strain/Indicator: TA100, Metabolic Activation: RAT, LIVER, S-9, AROCLOR 1254, Method: STANDARD PLATE) of the same compound?
Answer: The mutagenic call was “inactive; negative”.

Question: What about the mutagenic call [3] of the same compound?
Answer: Its mutagenic call is “inactive; negative”.

Question: What about the mutagenic call (Test System: AMES SALMONELLA TYPHIMURIUM, Strain/Indicator: TA1535, Metabolic Activation: RAT, LIVER, S-9, AROCLOR 1254, Method: STANDARD PLATE) of the same compound?
Answer: Its mutagenic call is “inactive; negative”.

Question: And the mutagenic call [4]?
Answer: The mutagenic call was “inactive; negative”.

Question: And the mutagenic call (Test System: AMES SALMONELLA TYPHIMURIUM, Strain/Indicator: TA1537, Metabolic Activation: RAT, LIVER, S-9, AROCLOR 1254, Method: STANDARD PLATE)?
Answer: Its mutagenic call is “inactive; negative”.

Question: What about the mutagenic call [5] of the same compound?
Answer: The mutagenic call was “inactive; negative”.

Question: What about the mutagenic call (Test System: AMES SALMONELLA TYPHIMURIUM, Strain/Indicator: TA1538, Metabolic Activation: RAT, LIVER, S-9, AROCLOR 1254, Method: STANDARD PLATE) of the same compound?
Answer: Its mutagenic call is “inactive; negative”.

Question: Which mutagenic call (Test System: AMES SALMONELLA TYPHIMURIUM, Strain/Indicator: TA98(1,8-DNP6), Metabolic Activation: NONE) does the source give for O=[N+]([O-])c1ccc2ccc3c4ccccc4c([N+](=O)[O-])c4ccc1c2c43 here?
Answer: The mutagenic call was “active; positive”.

Question: What about the mutagenic call (Test System: AMES SALMONELLA TYPHIMURIUM, Strain/Indicator: TA98(NR), Metabolic Activation: NONE) of the same compound?
Answer: Its mutagenic call is “active; positive”.

Question: What about the mutagenic call (Test System: AMES SALMONELLA TYPHIMURIUM, Strain/Indicator: TA98(NR), Metabolic Activation: NONE, Method: PREINCUBATION) of the same compound?
Answer: The mutagenic call was “active; positive”.

Question: And the mutagenic call (Test System: AMES SALMONELLA TYPHIMURIUM, Strain/Indicator: TA98, Metabolic Activation: NONE)?
Answer: Its mutagenic call is “active; positive”.

Question: What about the mutagenic call (Test System: AMES SALMONELLA TYPHIMURIUM, Strain/Indicator: TA98, Metabolic Activation: NONE, Method: PREINCUBATION) of the same compound?
Answer: Its mutagenic call is “active; positive”.

Question: What about the mutagenic call [1] of the same compound?
Answer: The mutagenic call was “active; positive”.

Question: What about the mutagenic call [2] of the same compound?
Answer: The mutagenic call was “active; positive”.

Question: Which results are given for C[Si]1(C)O[Si](C)(C)O[Si](C)(C)O1?
Answer: mutagenic call [1]: inactive; negative; mutagenic call (Test System: AMES SALMONELLA TYPHIMURIUM, Strain/Indicator: TA98, Metabolic Activation: RAT LIVER S-9, AROCLOR 1254, Method: STANDARD PLATE): inactive; negative; mutagenic call [2]: inactive; negative; mutagenic call (Test System: AMES SALMONELLA TYPHIMURIUM, Strain/Indicator: TA100, Metabolic Activation: RAT LIVER S-9, AROCLOR 1254, Method: STANDARD PLATE): inactive; negative; mutagenic call [3]: inactive; negative; mutagenic call (Test System: AMES SALMONELLA TYPHIMURIUM, Strain/Indicator: TA1535, Metabolic Activation: RAT LIVER S-9, AROCLOR 1254, Method: STANDARD PLATE): inactive; negative; mutagenic call [4]: inactive; negative; mutagenic call (Test System: AMES SALMONELLA TYPHIMURIUM, Strain/Indicator: TA1537, Metabolic Activation: RAT LIVER S-9, AROCLOR 1254, Method: STANDARD PLATE): inactive; negative; mutagenic call [5]: inactive; negative; mutagenic call (Test System: AMES SALMONELLA TYPHIMURIUM, Strain/Indicator: TA1538, Metabolic Activation: RAT LIVER S-9, AROCLOR 1254, Method: STANDARD PLATE): inactive; negative; mutagenic call (Test System: E. COLI, Strain/Indicator: P3078 POLA, Metabolic Activation: NONE, Method: SPOT TEST): inactive; negative; mutagenic call (Test System: E. COLI, Strain/Indicator: P3078 POLA, Metabolic Activation: RAT LIVER S-9, AROCLOR 1254, Method: SPOT TEST): inactive; negative; mutagenic call (Test System: E. COLI, Strain/Indicator: W3110, Metabolic Activation: NONE, Method: SPOT TEST): inactive; negative; mutagenic call (Test System: E. COLI, Strain/Indicator: W3110, Metabolic Activation: RAT LIVER S-9, AROCLOR 1254, Method: SPOT TEST): inactive; negative; mutagenic call (Test System: MOUSE LYMPHOMA, Strain/Indicator: L5178Y (TK+/TK-), Metabolic Activation: NONE, Method: SUSPENSION/PLATE): inactive; negative; mutagenic call (Test System: MOUSE LYMPHOMA, Strain/Indicator: L5178Y (TK+/TK-), Metabolic Activation: RAT, LIVER, S-9, Method: SUSPENSION/PLATE): inactive; negative

Question: Which mutagenic call (Test System: AMES SALMONELLA TYPHIMURIUM, Strain/Indicator: TA100, Metabolic Activation: NONE, Method: PREINCUBATION) does the source give for CC1(c2ccc([N+](=O)[O-])cc2)CO1 (stereo unspecified) here?
Answer: Its mutagenic call is “active; positive”.

Question: O=C(O)c1ccccc1Nc1cccc(C(F)(F)F)c1 was tested. Which mutagenic call (Test System: AMES SALMONELLA TYPHIMURIUM, Strain/Indicator: TA98, Metabolic Activation: RAT, LIVER, S-9, PCB, Method: STANDARD PLATE) did it give?
Answer: The mutagenic call was “inactive; negative”.

Question: What about the mutagenic call (Test System: AMES SALMONELLA TYPHIMURIUM, Strain/Indicator: TA100, Metabolic Activation: RAT, LIVER, S-9, PCB, Method: STANDARD PLATE) of the same compound?
Answer: Its mutagenic call is “inactive; negative”.

Question: What about the mutagenic call (Test System: AMES SALMONELLA TYPHIMURIUM, Strain/Indicator: TA1537, Metabolic Activation: RAT, LIVER, S-9, PCB, Method: STANDARD PLATE) of the same compound?
Answer: Its mutagenic call is “inactive; negative”.

Question: And the mutagenic call (Test System: AMES SALMONELLA TYPHIMURIUM, Strain/Indicator: TA1538, Metabolic Activation: RAT, LIVER, S-9, PCB, Method: STANDARD PLATE)?
Answer: Its mutagenic call is “inactive; negative”.

Question: And the mutagenic call (Test System: E. COLI, Strain/Indicator: WP2 UVRA, Metabolic Activation: RAT, LIVER, S-9, PCB, Method: STANDARD PLATE)?
Answer: Its mutagenic call is “inactive; negative”.
